Results taken from the NIST ThermoML archive (doi:10.1021/je800159w).

Key:
[1] = refractive index (Na D-line) (dimensionless); xn = mol fraction of the nth substance listed; conditions: 298.15 K, 101 kPa, Liquid, Standard Abbe refractometry
[2] = xn = mol fraction of the nth substance listed; conditions: 101 kPa, Liquid
[3] = Liquid
[4] = refractive index (Na D-line) (dimensionless); conditions: 101.33 kPa, Liquid, Standard Abbe refractometry

CCOS(=O)(=O)[O-].CC[n+]1cccc(C)c1 [1-ethyl-3-methylpyridinium ethylsulfate] + CCO
[1]
Conditions | refractive index
x2 = 0.0609 | 1.50392
x2 = 0.1108 | 1.50181
x2 = 0.2066 | 1.4973
x2 = 0.3083 | 1.49126
x2 = 0.4004 | 1.48469
x2 = 0.4998 | 1.476
x2 = 0.6034 | 1.46448
x2 = 0.7034 | 1.45003
x2 = 0.8452 | 1.41977
x2 = 0.9389 | 1.38864

[2]
Conditions | mass density, 298.15 K [kg/m3] | mass density, 313.15 K [kg/m3] | mass density, 328.15 K [kg/m3] | viscosity, 298.15 K [mPa·s] | viscosity, 313.15 K [mPa·s] | viscosity, 328.15 K [mPa·s]
x2 = 0.0609 | 1214.93 | 1205.03 | 1195.2 | 116.7 | 55.2 | 31.2
x2 = 0.1108 | 1208.33 | 1198.38 | 1188.52 | 96.9 | 48.57 | 28.12
x2 = 0.2066 | 1193.93 | 1183.86 | 1173.91 | 68 | 36.25 | 21.86
x2 = 0.3083 | 1175.71 | 1165.53 | 1155.46 | 45.35 | 25.91 | 16.41
x2 = 0.4004 | 1155.73 | 1145.51 | 1135.36 | 31.11 | 18.88 | 12.52
x2 = 0.4998 | 1129.53 | 1119.07 | 1108.74 | 20.04 | 12.92 | 8.971
x2 = 0.6034 | 1094.96 | 1084.3 | 1073.73 | 12.17 | 8.317 | 6.023
x2 = 0.7034 | 1051.68 | 1040.72 | 1029.83 | 7.452 | 5.332 | 3.99
x2 = 0.8452 | 961.67 | 950.09 | 938.48 | 3.322 | 2.502 | 1.943
x2 = 0.9389 | 870.77 | 858.52 | 846.1 | 1.812 | 1.388 | 1.086

CCO [ethanol] + CCOS(=O)(=O)[O-].CC[n+]1cccc(C)c1
Conditions | refractive index
[1], x1 = 1 | 1.36023

[2], x1 = 1
Conditions | mass density [kg/m3] | viscosity [mPa·s]
298.15 K | 785.46 | 1.082
313.15 K | 772 | 0.827
328.15 K | 758.55 | 0.641

CCO [ethanol]
[3], 101 kPa
Conditions | mass density [kg/m3] | viscosity [mPa·s]
298.15 K | 785.46 | 1.082
313.15 K | 772 | 0.827
328.15 K | 758.55 | 0.641

Conditions | refractive index
[4], 298.15 K | 1.36023

CCOS(=O)(=O)[O-].CC[n+]1cccc(C)c1 [1-ethyl-3-methylpyridinium ethylsulfate]
[3], 101.33 kPa
Conditions | mass density [kg/m3] | viscosity [mPa·s]
298.15 K | 1222.26 | 161.4
303.15 K | 1219.02 | 123.6
308.15 K | 1215.78 | 96.9
313.15 K | 1212.54 | 77.1
318.15 K | 1209.39 | 62.2
323.15 K | 1206.13 | 50.55
328.15 K | 1202.86 | 42.32
333.15 K | 1199.63 | 35.52
338.15 K | 1196.43 | 30.11
343.15 K | 1193.25 | 25.69

[4]
Conditions | refractive index
298.15 K | 1.50666
303.15 K | 1.50525
308.15 K | 1.50386
313.15 K | 1.50246
318.15 K | 1.50106
323.15 K | 1.49965
328.15 K | 1.49825
333.15 K | 1.49683
338.15 K | 1.4954
343.15 K | 1.49361

CCOS(=O)(=O)[O-].CC[n+]1cccc(C)c1 [1-ethyl-3-methylpyridinium ethylsulfate] + O
[1]
Conditions | refractive index
x2 = 0.0526 | 1.50583
x2 = 0.1412 | 1.50427
x2 = 0.2445 | 1.50193
x2 = 0.3233 | 1.49986
x2 = 0.4174 | 1.49685
x2 = 0.4972 | 1.49329
x2 = 0.588 | 1.48806
x2 = 0.6975 | 1.47838
x2 = 0.7928 | 1.46398
x2 = 0.9005 | 1.42959
x2 = 0.9484 | 1.39796

[2]
Conditions | mass density, 298.15 K [kg/m3] | mass density, 313.15 K [kg/m3] | mass density, 328.15 K [kg/m3] | viscosity, 298.15 K [mPa·s] | viscosity, 313.15 K [mPa·s] | viscosity, 328.15 K [mPa·s]
x2 = 0.0526 | 1221.69 | 1211.82 | 1202.02 | 127.6 | 60.5 | 34.93
x2 = 0.1412 | 1220.12 | 1210.22 | 1200.35 | 102.1 | 50.28 | 29.83
x2 = 0.2445 | 1217.8 | 1207.83 | 1198.02 | 77.9 | 39.91 | 23.49
x2 = 0.3233 | 1215.58 | 1205.62 | 1195.72 | 62.3 | 32.92 | 19.76
x2 = 0.4174 | 1212.21 | 1202.21 | 1192.23 | 46.87 | 24.86 | 15.51
x2 = 0.4972 | 1208.39 | 1198.31 | 1188.24 | 36.11 | 20.36 | 12.78
x2 = 0.588 | 1202.53 | 1192.32 | 1182.14 | 26.83 | 15.52 | 9.894
x2 = 0.6975 | 1191.35 | 1180.92 | 1170.42 | 17.72 | 10.5 | 6.847
x2 = 0.7928 | 1174.05 | 1163.41 | 1152.61 | 11.18 | 6.778 | 4.508
x2 = 0.9005 | 1129.44 | 1119.24 | 1108.66 | 4.927 | 3.161 | 2.197
x2 = 0.9484 | 1086.2 | 1077.5 | 1068 | 2.717 | 1.818 | 1.315
